Results: patent US20240228488A1 (TAKEDA PHARMACEUTICAL COMPANY LIMITED, priority 2021, published 2024)

Target: human activated kallikrein enzyme (Homo sapiens, UniProt P03952)
Assay: Plasma kallikrein inhibition, fluorogenic PFR-AMC substrate, 500 pM activated kallikrein format
Type: biochemical
Settings: 500 pM activated kallikrein, 300 uM PFR-AMC, 30 min preincubation, 10 min reaction; read-out: Primary Dose Response Assay: Average EC50
Method: Compounds were evaluated for inhibition of the human activated kallikrein enzyme in two formats of an assay employing a fluorogenic peptide substrate. In one assay format, the concentrations of reagents were as follows: 20 mM Tris pH 7.5, 1 mM EDTA, 150 mM sodium chloride, 0.1% PEG-400, 0.1% Triton X-100, 500 pM activated kallikrein enzyme, 300 uM Pro-Phe-Arg-7-amido-4-methylcoumarin (PFR-AMC) substrate. Prior to reaction initiation with substrate, enzyme and inhibitors were preincubated for 30 min at room temperature. After initiation with substrate, reactions were incubated for 10 min at room temperature and fluorescence emission at 460 nm from 380 nm excitation measured with a microplate reader. In another assay format, the concentrations of reagents were as follows: 20 mM Tris pH 7.5, 1 mM EDTA, 150 mM sodium chloride, 0.1% PEG-400, 0.1% Triton X-100, 5 pM activated kallikrein enzyme, 300 uM PFR-AMC substrate. Prior to reaction initiation with substrate, enzyme and inhibitors were preincubated for 30 min at room temperature. After initiation with substrate, reactions were incubated for 18 hr at room temperature and fluorescence emission at 460 nm from 380 nm excitation measured with a microplate reader.
Table 49 provides the results of the assay in the format with 500 pM activated kallikrein assay. For the compounds listed in Table 49, the EC50 values are reported according to the following ranges: A≤1.0 nM; 1.0 nM<B≤10 nM; 10 nM<C≤100 nM; 100 nM<D≤1000 nM; 1000 nM<E≤6000 nM; 6000 nM<F.
Table 51 provides comparative plasma kallikrein inhibition potency in the assay format with 500 pM activated kallikrein assay (described in detail in a preceding example). For the compounds listed in Table 51, the EC50 values are reported according to the following ranges: A≤1.0 nM; 1.0 nM<B≤10 nM; 10 nM<C≤100 nM; 100 nM<D≤1000 nM; 1000 nM<E≤6000 nM; 6000 nM<F.

Sequence of human activated kallikrein enzyme (P03952 391-638 limits assumed): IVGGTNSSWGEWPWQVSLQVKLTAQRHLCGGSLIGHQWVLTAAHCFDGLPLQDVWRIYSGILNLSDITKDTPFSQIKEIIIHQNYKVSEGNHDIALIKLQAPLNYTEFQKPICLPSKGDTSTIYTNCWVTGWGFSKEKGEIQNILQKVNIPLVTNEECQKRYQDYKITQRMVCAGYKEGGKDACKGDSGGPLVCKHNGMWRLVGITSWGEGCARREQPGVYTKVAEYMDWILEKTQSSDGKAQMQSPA
Sequence of human activated kallikrein enzyme (P03952 20-390 partner limits assumed): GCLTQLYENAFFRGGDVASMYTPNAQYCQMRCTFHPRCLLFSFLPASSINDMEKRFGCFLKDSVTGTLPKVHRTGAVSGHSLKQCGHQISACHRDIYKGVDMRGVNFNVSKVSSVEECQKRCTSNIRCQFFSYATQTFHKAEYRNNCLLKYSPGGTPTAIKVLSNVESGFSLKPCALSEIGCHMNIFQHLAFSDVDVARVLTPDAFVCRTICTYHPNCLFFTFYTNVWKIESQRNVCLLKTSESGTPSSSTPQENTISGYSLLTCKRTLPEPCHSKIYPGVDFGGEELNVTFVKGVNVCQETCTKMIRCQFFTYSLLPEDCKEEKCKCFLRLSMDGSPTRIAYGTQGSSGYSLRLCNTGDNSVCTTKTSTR

Row | Structure (SMILES) | EC50 [nM]
1 | N#Cc1cc(C2CC2)cn2cc(CNc3ccnc(NC(=O)[C@@H]4C[C@H]4c4cccc(Cl)c4)c3)nc12 (racemic) [Example 119, rac-(1S*,2S*)-2-(3-chlorophenyl)-N-(4-(((8-cyano-6-cyclopropylimidazo[1,2-a]pyridin-2-yl)methyl)amino)pyridin-2-yl)cyclopropane-1-carboxamide] | 1 to 10
2 | O=C(Nc1noc(NCc2cn3cc(C4CC4)ccc3n2)n1)[C@H]1C[C@@H]1c1cccc(Cl)c1 [Example 615, (1S,2S)-2-(3-chlorophenyl)-N-(5-(((6-cyclopropylimidazo[1,2-a]pyridin-2-yl)methyl)amino)-1,2,4-oxadiazol-3-yl)cyclopropane-1-carboxamide] | 1000 to 6000
3 | O=C(Nc1cc(N(CCO)Cc2cn3cc(C4CC4)ccc3n2)ncn1)[C@H]1C[C@@H]1c1cccc(Cl)c1 [Example 77, (1S,2S)-2-(3-chlorophenyl)-N-(6-(((6-cyclopropylimidazo[1,2-a]pyridin-2-yl)methyl)(2-hydroxyethyl)amino)pyrimidin-4-yl)cyclopropane-1-carboxamide] | 10 to 100
4 | CCOC(=O)c1nc(NCc2cn3cc(C4CC4)ccc3n2)cc(NC(=O)[C@H]2C[C@@H]2c2cccc(Cl)c2)n1 (racemic) [Example 111, rac-ethyl 4-((1S*,2S*)-2-(3-chlorophenyl)cyclopropane-1-carboxamido)-6-(((6-cyclopropylimidazo[1,2-a]pyridin-2-yl)methyl)amino)pyrimidine-2-carboxylate] | 1 to 10
5 | O=C(Nc1cncnc1NCc1cn2cc(C3CC3)ccc2n1)[C@H]1C[C@@H]1c1cccc(Cl)c1 (racemic) [Example 78, rac-(1S*,2S*)-2-(3-chlorophenyl)-N-(4-(((6-cyclopropylimidazo[1,2-a]pyridin-2-yl)methyl)amino)pyrimidin-5-yl)cyclopropane-1-carboxamide] | 100 to 1000
6 | O=C(Nc1cc(NCc2cn3cc(C4CC4)ccc3n2)ncn1)[C@H]1C[C@@H]1c1ccc(F)c(Cl)c1 (racemic) [Example 45, rac-(1S*,2S*)-2-(3-chloro-4-fluorophenyl)-N-(6-(((6-cyclopropylimidazo[1,2-a]pyridin-2-yl)methyl)amino)pyrimidin-4-yl)cyclopropane-1-carboxamide] | 100 to 1000
7 | O=C(Nc1cc(NCc2cn3cc(C4CC4)ccc3n2)ncn1)[C@@H]1[C@@H](c2cccc(Cl)c2)C1(F)F (racemic) [Example 503, rac-(1S*,3S*)-3-(3-chlorophenyl)-N-(6-(((6-cyclopropylimidazo[1,2-a]pyridin-2-yl)methyl)amino)pyrimidin-4-yl)-2,2-difluorocyclopropane-1-carboxamide] | 1 to 10
8 | O=C(Nc1cc(NCc2cn3cc(C4CC4)ccc3n2)ncn1)[C@H]1C[C@@H]1c1ncn2ccc(Cl)c(F)c12 (racemic) [Example 504, rac-(1S*,2S*)-2-(7-chloro-8-fluoroimidazo[1,5-a]pyridin-1-yl)-N-(6-(((6-cyclopropylimidazo[1,2-a]pyridin-2-yl)methyl)amino)pyrimidin-4-yl)cyclopropane-1-carboxamide] | 10 to 100
9 | Cc1ccnc([C@H]2C[C@@H]2C(=O)Nc2nncc(N(C)Cc3cn4cc(C5CC5)cc(N5CC(=O)N(C)C5=O)c4n3)n2)n1 [Example 668, (1S,2S)—N-(5-(((6-cyclopropyl-8-(3-methyl-2,4-dioxoimidazolidin-1-yl)imidazo[1,2-a]pyridin-2-yl)methyl)(methyl)amino)-1,2,4-triazin-3-yl)-2-(4-methylpyrimidin-2-yl)cyclopropane-1-carboxamide] | < 1
10 | Cc1ccnc([C@H]2C[C@@H]2C(=O)Nc2cc(NCc3cn4cc(Cl)cc(N5CC(=O)N(C)C5=O)c4n3)ncn2)n1 [Example 380, (1S,2S)-N-(6-(((6-chloro-8-(3-methyl-2,4-dioxoimidazolidin-1-yl)imidazo[1,2-a]pyridin-2-yl)methyl)amino)pyrimidin-4-yl)-2-(4-methylpyrimidin-2-yl)cyclopropane-1-carboxamide] | < 1
11 | CCc1cc(N2CC(=O)N(C)C2=O)c2nc(CNc3cc(NC(=O)[C@H]4C[C@@H]4c4nccc(C)n4)nc(C)n3)cn2c1 [Example 537, (1S,2S)-N-(6-(((6-ethyl-8-(3-methyl-2,4-dioxoimidazolidin-1-yl)imidazo[1,2-a]pyridin-2-yl)methyl)amino)-2-methylpyrimidin-4-yl)-2-(4-methylpyrimidin-2-yl)cyclopropane-1-carboxamide] | < 1

The next lines start with the values.

Row | EC50 [nM] | Structure (SMILES)
12 | 1 to 10 | O=C(Nc1cc(NCc2cn3cc(C4CC4)cc(N4CC5(C4)CN(C4CC4)C5)c3n2)ncn1)[C@H]1C[C@@H]1c1cccc(Cl)c1 [Example I-12, (1S,2S)-2-(3-chlorophenyl)-N-(6-(((6-cyclopropyl-8-(6-cyclopropyl-2,6-diazaspiro[3.3]heptan-2-yl)imidazo[1,2-a]pyridin-2-yl)methyl)amino)pyrimidin-4-yl)cyclopropane-1-scarboxamide]
13 | > 6000 | O=C(Nc1cc(NCc2cn3cc(C4CC4)ccc3n2)ccn1)[C@H]1C[C@@H]1c1n[nH]c2ccc(Cl)cc12 (racemic) [Example I-225, rac-(1S*,2S*)-2-(5-chloro-1H-indazol-3-yl)-N-(4-(((6-cyclopropylimidazo[1,2-a]pyridin-2-yl)methyl)amino)pyridin-2-yl)cyclopropane-1-carboxamide]
14 | < 1 | CN1CCN(c2cc(Cl)cn3cc(CNc4ccnc(NC(=O)[C@H]5C[C@@H]5c5cccc(Cl)c5)c4)nc23)CC1 [Example I-252, (1S,2S)-N-(4-(((6-chloro-8-(4-methylpiperazin-1-yl)imidazo[1,2-a]pyridin-2-yl)methyl)amino)pyridin-2-yl)-2-(3-chlorophenyl)cyclopropane-1-carboxamide]
15 | > 6000 | COc1cc([C@H]2C[C@@H]2C(=O)Nc2cc(NCc3cn4cc(C5CC5)ccc4n3)ncn2)cc(Cl)n1 (racemic) [Example I-187, rac-(1S*,2S*)-2-(2-chloro-6-methoxypyridin-4-yl)-N-(6-(((6-cyclopropylimidazo[1,2-a]pyridin-2-yl)methyl)amino)pyrimidin-4-yl)cyclopropane-1-carboxamide]
16 | < 1 | Cc1ccnc([C@H]2C[C@@H]2C(=O)Nc2cnnc(OCc3cn4cc(C5CC5)cc(N5CC(=O)N(C)C5=O)c4n3)c2)n1 [Example I-648, (1S,2S)—N-(6-((6-cyclopropyl-8-(3-methyl-2,4-dioxoimidazolidin-1-yl)imidazo[1,2-a]pyridin-2-yl)methoxy)pyridazin-4-yl)-2-(4-methylpyrimidin-2-yl)cyclopropane-1-carboxamide]
17 | > 6000 | O=C(Nc1cc(NCc2cn3cc(C4CC4)ccc3n2)ncn1)[C@H]1C[C@@H]1c1cccc(Cl)c1[N+](=O)[O-] (racemic) [Example I-190, rac-(1S*,2S*)-2-(3-chloro-2-nitrophenyl)-N-(6-(((6-cyclopropylimidazo[1,2-a]pyridin-2-yl)methyl)amino)pyrimidin-4-yl)cyclopropane-1-carboxamide]
18 | 1000 to 6000 | O=C(Nc1cc(N2C[C@@H](O)C[C@@H]2c2cn3cc(C4CC4)ccc3n2)ncn1)[C@H]1C[C@@H]1c1cc(Cl)ccn1 (single isomer, unassigned; isomer 1) [Example I-248, (1S*,2S*)-2-(4-chloropyridin-2-yl)-N-(6-((2R,4S)-2-(6-cyclopropylimidazo[1,2-a]pyridin-2-yl)-4-hydroxypyrrolidin-1-yl)pyrimidin-4-yl)cyclopropane-1-carboxamide, isomer 1]
